# Data reported in paper PMC8253220, “Molecular design, synthesis and in vitro biological evaluation of thienopyrimidine–hydroxamic acids as chimeric kinase HDAC inhibitors: a challenging approach to combat cancer” (Journal of Enzyme Inhibition and Medicinal Chemistry, 2021).
# Values joined by “and” are separate entries in the source; they are usually repeats but may differ in a detail not shown here. Equal entries are not always repeated.
# Legend:
# Assay in all cases: NCI one-dose screen
# Assay type in all cases: cell-based, human
# 786-0 = conditions: Renal 786-0, 10 µM single dose
# How it was run: (§1)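 At 10 μM, a single concentration, compounds were evaluated for antiproliferative effect in the NCI 60-line screen, with growth expressed relative to untreated control cells.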
# ACHN = conditions: Renal ACHN, 10 µM single dose
# How it was run: as §1
# BT-549 = conditions: Breast BT-549, 10 µM single dose
# How it was run: as §1
# CAKI-1 = conditions: Renal CAKI-1, 10 µM single dose
# How it was run: as §1
# CCRF-CEM = conditions: Leukemia CCRF-CEM, 10 µM single dose
# How it was run: as §1
# COLO 205 = conditions: Colon COLO 205, 10 µM single dose
# How it was run: as §1
# DU-145 = conditions: Prostate DU-145, 10 µM single dose
# How it was run: as §1
# EKVX = conditions: NSCLC EKVX, 10 µM single dose
# How it was run: (§2)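 Each cell line received compound at 10 μM as part of the NCI one-dose protocol. Values reflect growth inhibition percent calculated from growth relative to untreated controls.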
# HCC-2998 = conditions: Colon HCC-2998, 10 µM single dose
# How it was run: as §1
# HCT-116 = conditions: Colon HCT-116, 10 µM single dose
# How it was run: as §1
# HCT-15 = conditions: Colon HCT-15, 10 µM single dose
# How it was run: as §1
# HL-60(TB) = conditions: Leukemia HL-60(TB), 10 µM single dose
# How it was run: as §1
# IGROV1 = conditions: Ovarian IGROV1, 10 µM single dose
# How it was run: as §1
# K-562 = conditions: Leukemia K-562, 10 µM single dose
# How it was run: as §1
# KM12 = conditions: Colon KM12, 10 µM single dose
# How it was run: (§3)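 Following the standard NCI-60 protocol, compounds were applied once at 10 μM to all 60 cancer lines. Read-out is percent growth versus untreated controls, expressed as inhibition %.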
# LOX IMVI = conditions: Melanoma LOX IMVI, 10 µM single dose
# How it was run: as §1
# M14 = conditions: Melanoma M14, 10 µM single dose
# How it was run: as §1
# MCF7 = conditions: Breast MCF7, 10 µM single dose
# How it was run: as §3
# MDA-MB-231/ATCC = conditions: Breast MDA-MB-231/ATCC, 10 µM single dose
# How it was run: as §1
# MDA-MB-468 = conditions: Breast MDA-MB-468, 10 µM single dose
# How it was run: as §3
# NCI-H23 = conditions: NSCLC NCI-H23, 10 µM single dose
# How it was run: as §3
# NCI-H460 = conditions: NSCLC NCI-H460, 10 µM single dose
# How it was run: as §1
# NCI-H522 = conditions: NSCLC NCI-H522, 10 µM single dose
# How it was run: as §2
# NCI/ADR-RES = conditions: Ovarian NCI/ADR-RES, 10 µM single dose
# How it was run: as §1
# OVCAR-3 = conditions: Ovarian OVCAR-3, 10 µM single dose
# How it was run: as §1
# OVCAR-4 = conditions: Ovarian OVCAR-4, 10 µM single dose
# How it was run: as §1
# OVCAR-5 = conditions: Ovarian OVCAR-5, 10 µM single dose
# How it was run: as §1
# RPMI-8226 = conditions: Leukemia RPMI-8226, 10 µM single dose
# How it was run: as §1
# RXF 393 = conditions: Renal RXF 393, 10 µM single dose
# How it was run: as §1
# SF-268 = conditions: CNS SF-268, 10 µM single dose
# How it was run: as §3
# SF-539 = conditions: CNS SF-539, 10 µM single dose
# How it was run: as §3
# SK-MEL-28 = conditions: Melanoma SK-MEL-28, 10 µM single dose
# How it was run: as §1
# SK-MEL-2 = conditions: Melanoma SK-MEL-2, 10 µM single dose
# How it was run: (§4)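 One concentration (10 μM) applied to each line of the full NCI-60 panel; percent growth compared against untreated cells.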
# SK-MEL-5 = conditions: Melanoma SK-MEL-5, 10 µM single dose
# How it was run: as §1
# SNB-19 = conditions: CNS SNB-19, 10 µM single dose
# How it was run: as §4
# SNB-75 = conditions: CNS SNB-75, 10 µM single dose
# How it was run: as §2
# U251 = conditions: CNS U251, 10 µM single dose
# How it was run: as §2
smiles,measurement,setting,value
"Cc1c(C(=O)NO)sc2ncnc(Nc3ccc(NC(=O)Nc4ccccc4)cc3)c12 [Compound 7a, 1–(4-(6-(hydroxycarbamoyl)-5-methylthieno[2,3-d]pyrimidin-4-ylamino)phenyl)-3-phenylurea]",Growth Percent,786-0,95.9% and 95.93%
same,Growth Percent,ACHN,102.3% and 102.35%
same,Growth Percent,BT-549,87.6%
same,Growth Percent,CAKI-1,91.6% and 91.67%
same,Growth Percent,CCRF-CEM,97.4% and 97.44%
same,Growth Percent,COLO 205,106.8% and 106.84%
same,Growth Percent,DU-145,100.2% and 100.26%
same,Growth Percent,EKVX,88.9% and 88.95%
same,Growth Percent,HCC-2998,99.3% and 99.38%
same,Growth Percent,HCT-116,93.8% and 93.86%
same,Growth Percent,HCT-15,99.1% and 99.16%
same,Growth Percent,HL-60(TB),102.2% and 102.25%
same,Growth Percent,IGROV1,103.6% and 103.69%
same,Growth Percent,K-562,105.9% and 105.92%
same,Growth Percent,KM12,94.8% and 94.85%
same,Growth Percent,LOX IMVI,90.5% and 90.57%
same,Growth Percent,M14,95.1% and 95.18%
same,Growth Percent,MCF7,90.7% and 90.78%
same,Growth Percent,MDA-MB-231/ATCC,91.1% and 91.12%
same,Growth Percent,MDA-MB-468,111.9% and 111.92%
same,Growth Percent,NCI-H23,101.19%
same,Growth Percent,NCI-H460,100.3% and 100.39%
same,Growth Percent,NCI-H522,92.0% and 92.04%
same,Growth Percent,NCI/ADR-RES,102.1% and 102.16%
same,Growth Percent,OVCAR-3,105.4% and 105.48%
same,Growth Percent,OVCAR-4,94.1% and 94.11%
same,Growth Percent,OVCAR-5,105.3% and 105.35%
same,Growth Percent,RPMI-8226,105.4% and 105.45%
same,Growth Percent,RXF 393,110.2%
same,Growth Percent,SF-268,91.7%
same,Growth Percent,SF-539,96.0%
same,Growth Percent,SK-MEL-28,104.3% and 104.39%
same,Growth Percent,SK-MEL-2,107.8%
same,Growth Percent,SK-MEL-5,101.0% and 101.07%
same,Growth Percent,SNB-19,100.2%
same,Growth Percent,SNB-75,75.5% and 75.56%
same,Growth Percent,U251,89.3% and 89.34%
